Laboratory results as given in patent US20060270841A1, “Assays to monitor amyloid precursor protein processing” (priority 2002, published 2006).

Tests used:
Type in all cases: cell-based
[1] = test system: APP processing; assay: APP/TAT fusion protein with LTR-GFP reporter in H4 cells, FLUOstar reading (Example 3); settings: for Fluor Units: approximately 48 hours, 485 excitation/538 emission
Procedure: 1. H4 cells (ATCC HTB-148) were transfected with the various constructs listed below using 6 μL Fugene per 100 μL Optimem and 100 μL Optimem per well (6-well dishes). Transfection reactions were incubated for 30 minutes prior to adding 100 μL dropwise onto wells.
Transfections were done as follows:
1. 1 μg pMM321 (FIG. 25A-D) and 1 μg pcDNA3.1 backbone
1a. 1 μg pMM321 and 1 μg pcDNA3.1 (Invitrogen, San Diego, Calif.) backbone. Prior to transfection, 10 μM L-875,532 (γ-secretase inhibitor) was added to the well.
2. 1 μg pMM321 and 1 μg pRBR186 (FIG. 22A; APP expression vector; processing and inhibition of processing control)
2a. 1 μg pMM321 and 1 μg pRBR186. Prior to transfection, 10 μM L-875,532 was added to cells (transfection solution for 3-5 were prepared in bulk)
4. and 4a. 1 μg pMM321 and 1 μg pcDNA3.1 zeo (+) APP(1-651)SW, K612V-(M1L)TATexonI. Prior to transfection, 10 μM L-875,532 was added to the two wells.
5. and 5a. 1 μg pMM321 and 1 μg pcDNA3.1 zeo (+) APP(1-651)SW, K612V-(M1L)TATexonI. Prior to transfection, 10 μM Compound X was added to the two wells
7. 1 μg pMM321 and 1 μg pUCd5 TAT. Prior to transfection, 10 μM L-875,532 was added to the cells.
Cells were assessed by eye under a fluorescence microscope the morning following transfection (˜20 hrs).
At approximately 48 hours, cells were trypsinized, spun down, and resuspended in 100 μL PBS. The cellular contents of each well of the transfection plates were placed into one well of a 96-well fluorescence plate. Fluorescence was analyzed using the FLUOstar (485 excitation/538 emission).

[2] = test system: APP processing; assay: APP-TAT-APPct32 fusion protein with LTR β-galactosidase reporter in P4-R5 HeLa cells (Example 8); settings: 10 μM inhibitor
Procedure: P4-R5 cells are HeLa cells that contain a stably integrated β-galactosidase reporter gene under the control of the HIV1 LTR.
1.) Cell count on P4-R5 cells=7.6×10^5 cells per ml in cDMEM (−)PR. Seeded sterile white luminometer TC plates with the following cell numbers:
• 5×10^3/well=0.75 ml in 9.25 ml media • 1.0×10^4/well=1.5 ml in 8.5 ml media • Seeded 100 μL cells per well. • Incubate overnight at 37° C., 5% CO2. Day 2
2.) Made up media with appropriate dilutions of inhibitors. • On no-inhibitor controls, added 100 μL of cDMEM with 1% DMSO • On wells with Compound X, added 10 μM inhibitor in cDMEM • On wells with L-875,532, added 10 μM inhibitor in cDMEM
3.) Prior to transfection, pulled off media on P4-R5 cells and replaced with media −/+inhibitor. • FUGENE® transfection: • For FUGENE® transfection:
4.) Added 600 μL of OPTIMEM® to sterile EPPENDORF® tube and carefully added 30 μL FUGENE® to media, without touching walls of tube. Incubated at room temperature for 5 minutes. • In separate EPPENDORF® tubes, added each DNA. • Added FUGENE®/OPTIMEM® dropwise to DNA; incubated at room temperature for 15 minutes.
Added 15 μL/well of DNA/FUGENE®/OPTIMEM® dropwise to media in appropriate wells on P4-R5 cells, swirling to mix. […]
6. Read immediately in luminometer using standard file. Filled in required fields, read plate.

[3] = test system: Aβ; assay: Production of Aβ in conditioned media of transfected 293T and H4 cells; settings: 10 μM L-685,458, 1 mL conditioned media
Procedure: 1 mL of conditioned media from each well was analyzed for production of Aβ.

[4] = test system: APP processing; assay: APP/TAT fusion protein with LTR-EGFP reporter (pMM321), transient transfection in HEK293T cells (Example 2); settings: for # Bright / # Med / # Non / # Strong: count from photographs; for fluorometer reading: 293T, 10 uM 458, 100,000 cells
Procedure: (§1) “pcDNA3.1 zeo (+) APP(1-651)SW, K612V-(M1L)TATexonI,” “pMM321,” and “pUCd5TAT” are the same as in Example 1. H4 cells (ATCC HTB-148) are a neuronal cell line.
(§2) • Day 1: Plated out 2×6 well plates of HEK293T cells and 2×6 well plates of H4 cells at 1×10^5 cells/well. • Day 2: Transfected cells with 2 μg total DNA—pcDNA3.1 zeo (+) APP(1-651)SW, K612V-(M1L)TATexonI and carrier (a pET-IN plasmid). Plate 1:
(§3) 3,4: 0.1 μg pMM321+0.1 μg pcDNA3.1 zeo (+) APP(1-651)SW, K612V-(M1L)TATexonI+1.8 μg carrier (added too 0.5×carrier to this mix in 293T cells)
Transfections for HEK293T cells: 9 μL Fugene/well. Combined with DNA in Optimem and incubated and added to cells according to manufacturer's instructions.
(§4) Added 10 μM L-685,458 to Plates 1 and 2, wells 2 and 4 for both cell types within 1 hour of transfection. Observed cells periodically.
(§5) Took pictures at 24, 46 hours after transfection, using AE lock to keep exposures constant between wells.
(§6) Changed media on cells at 24 hours past transfection. Kept 10 μM L-685,458 on cells in wells 2 and 4.
Took some photographs under fluorescent and white light (white light at low intensity) to reveal fluorescent and non-fluorescent cells. Conducted a subjective analysis of the photographs to see if the amount of inhibition by 10 μL-685,458 was in any way quantifiable. Counted bright (white in the middle), strong (blue middle), medium (green) and dim/non-fluorescent cells and determined the approximate fraction of each level of expression. Results follow:
(§7) 100,000 cells from each well were trypsinized and placed in 0.1 mL phenol red-free media in a Costar 96-well dish and read using the fluorometer.

[5] = test system: APP processing; assay: APP/TAT fusion protein with LTR-EGFP reporter (pMM321), transient transfection in H4 cells (Example 2); settings: for fluorometer reading: 10 uM 458, 100,000 cells
Procedure: as §1, §2, §3
Transfections for H4 cells: 6 μL Fugene/well. Combined with DNA in Optimem and incubated and added to cells according to manufacturer's instructions.
as §4, §5, §6, §7

[6] = 293T cells, 46 hours, 1 μg pMM321 + 0.1 μg APP/TAT vector + cmpd (10 μM)
[7] = 293T cells, 46 hours, 1 μg pMM321 + 1 μg APP/TAT vector + cmpd (10 μM), approximate fraction of cells
[8] = 293T cells, 46 hours, 1 μg pMM321 + 1 μg APP/TAT vector + cmpd (10 μM)

Structure (SMILES): C[C@H](NC(=O)Cc1cc(F)cc(F)c1)C(=O)N[C@H]1N=C(c2ccccc2)c2ccccc2N(C)C1=O [L-875,532]
- Fluor Units ([1]; pMM321 + APP-TAT-ct32, 10 μM inhibitor): 8283 Fluor Units
- decrease of fluorescence (fold) ([1]; pMM321 + APP/TAT vector, 10 μM inhibitor vs no inhibitor): 2.5 ×
- Fluor Units ([1]; pMM321 + pRBR186 (control), 10 μM inhibitor): 2161 Fluor Units
- Fluor Units ([1]; pMM321 alone (control), 10 μM inhibitor): 3443 Fluor Units
- fluorescence assessed by eye under a fluorescence microscope ([1]; ~20 hrs, 1 μg pMM321 + 1 μg APP/TAT vector, 10 μM inhibitor): Clear inhibition of fluorescence
- transactivation of the LTR by pUCd5TAT (control) [2]: not affected by either inhibitor

Structure (SMILES): CC(C)C[C@H](NC(=O)[C@H](Cc1ccccc1)C[C@@H](O)[C@H](Cc1ccccc1)NC(=O)OC(C)(C)C)C(=O)N[C@@H](Cc1ccccc1)C(N)=O [L-685,458, {1S-Benzyl-4R-[1-(1S-carbamoyl-2-phenylethylcarbamoyl)-1S-3-methylbutylcarbamoyl]-2R-hydroxy-5-phenylpentyl}carbamic acid tert-butyl ester]
- Aβ in conditioned media [3]: completely inhibited to background levels
- inhibition of GFP ([4]; 10 μM L-685,458, same wells as the Aβ analysis (293T and H4 cells)): substantial inhibition of GFP was not observed
- inhibition of fluorescence (fluorometer) ([4]; 293T cells, 0.1 μg APP/TAT vector + 0.1 μg pMM321, 10 μM L-685,458): Inhibition of fluorescence was also observed
- inhibition of fluorescence (fluorometer) ([4]; 293T cells, 1 μg APP/TAT vector + 1 μg pMM321, 10 μM L-685,458): reduced to background levels
- effect on numbers of fluorescing cells (Table 1, second run) ([4]; 293T cells, 1 μg pMM321 + 0.1 μg APP/TAT vector, with vs without cmpd): fewer bright and strong fluorescing cells as well as more non-fluorescent cells
- effect on numbers of fluorescing cells (Table 1, first run) ([4]; 293T cells, 1 μg pMM321 + 1 μg APP/TAT vector, with vs without cmpd): fewer strong and medium fluorescing cells as well as more non-fluorescent cells
- # Bright [4, 6]: 23
- # Med [4, 6]: 149
- # Non [4, 6]: 194
- # Strong [4, 6]: 32
- % Med [4, 7]: 11%
- % Non [4, 7]: 88%
- % Strong [4, 7]: 0.8%
- # Bright [4, 8]: none
- # Med [4, 8]: 66
- # Non [4, 8]: 521
- # Strong [4, 8]: 5
- fluorometer reading ([4]; 0.1 ug LTRGFP, 0.1 ug APPtat): 14790
- fluorometer reading ([4]; 0.1 ug LTRGFP, 1 ug APPTAT): 10491
- fluorometer reading ([4]; 1 ug LTRGFP, 0.1 ug APPtat): 65535
- fluorometer reading ([4]; 1 ug LTRGFP, 1 ug APPTAT): 14321
- green (GFP) cells observed ([4]; HEK293T cells, 24 hours, 0.1 μg pMM321 + 0.1 μg APP/TAT vector, 10 μM L-685,458): Bright, medium, and dim green cells
- green (GFP) cells observed ([4]; HEK293T cells, 24 hours, 0.1 μg pMM321 + 1 μg APP/TAT vector, 10 μM L-685,458): Bright, medium, and dim green cells
- green (GFP) cells observed ([4]; HEK293T cells, 24 hours, 1 μg pMM321 + 0.1 μg APP/TAT vector, 10 μM L-685,458): Fewer bright green cells/field but intensity does not appear strongly diminished
- green (GFP) cells observed, of 15 cells ([4]; HEK293T cells, 24 hours, 1 μg pMM321 + 1 μg APP/TAT vector, 10 μM L-685,458): 6 very dim, 5 dim, 1 medium, 3 bright
- fluorometer reading ([5]; H4, 0.1 ug LTRGFP, 0.1 ug APPtat): 6957
- fluorometer reading ([5]; H4, 0.1 ug LTRGFP, 1 ug APPTAT): 10031
- fluorometer reading ([5]; H4, 1 ug LTRGFP, 0.1 ug APPtat): 7136
- fluorometer reading ([5]; H4, 1 ug LTRGFP, 1 ug APPTAT): 25307
- bright green cells/field ([5]; H4 cells, 24 hours, 0.1 μg pMM321 + 1 μg APP/TAT vector, 10 μM L-685,458): 3-5 cells/field
- green (GFP) cells observed under the microscope ([5]; H4 cells, 24 hours, 1 ug pMM321 + 1 ug APP/TAT vector, 10 μM L-685,458): reduced compared with well #1
- inhibition of fluorescence (fluorometer) ([5]; H4 cells, any transfection conditions, 10 μM L-685,458): No inhibition of fluorescence was observed
